# According to publication PMC9150124, “Design of a Potent, Selective, and Brain-Penetrant Inhibitor of Wnt-Deactivating Enzyme Notum by Optimization of a Crystallographic Fragment Hit” (Journal of Medicinal Chemistry, 2022):
# Columns and labels:
# Assay in all cases: SelectScreen kinase profiling, SSBK ZLyte SP Technology
# Assay type in all cases: biochemical
# [1] = biological target: kinase named in conditions (Homo sapiens, UniProt P08581, M1250T); details: MET M1250T, 10 μM
# Procedure: (§1) Kinase selectivity screening was performed by Thermo Fisher Scientific (Paisley, U.K.) in their SelectScreen Biochemical Kinase Profiling Service. Assay information and data are presented in the Supporting Information.
# (§2) Kinase selectivity screening was performed by ThermoFisher Scientific (Paisley, U.K.) in their SelectScreenTM
# (§3) Biochemical Kinase Profiling service .
# [2] = biological target: kinase named in conditions (Homo sapiens, UniProt Q9Y4K4); details: MAP4K5 (KHS1), 10 μM
# Procedure: as §1, §2, §3
# [3] = biological target: kinase named in conditions (Homo sapiens, UniProt P78527); details: DNA-PK, 10 μM
# Procedure: as §1, §2, §3
# [4] = biological target: kinase named in conditions (Homo sapiens, UniProt Q05513); details: PRKCZ (PKC zeta), 10 μM
# Procedure: as §1, §2, §3
# [5] = biological target: kinase named in conditions (Homo sapiens, UniProt P32298); details: GRK4, 10 μM
# Procedure: as §1, §2, §3
# [6] = biological target: kinase named in conditions (Homo sapiens, UniProt Q9H792); details: PEAK1, 10 μM
# Sequence of kinase named in conditions (Homo sapiens, UniProt Q9H792) (Q9H792 whole entry): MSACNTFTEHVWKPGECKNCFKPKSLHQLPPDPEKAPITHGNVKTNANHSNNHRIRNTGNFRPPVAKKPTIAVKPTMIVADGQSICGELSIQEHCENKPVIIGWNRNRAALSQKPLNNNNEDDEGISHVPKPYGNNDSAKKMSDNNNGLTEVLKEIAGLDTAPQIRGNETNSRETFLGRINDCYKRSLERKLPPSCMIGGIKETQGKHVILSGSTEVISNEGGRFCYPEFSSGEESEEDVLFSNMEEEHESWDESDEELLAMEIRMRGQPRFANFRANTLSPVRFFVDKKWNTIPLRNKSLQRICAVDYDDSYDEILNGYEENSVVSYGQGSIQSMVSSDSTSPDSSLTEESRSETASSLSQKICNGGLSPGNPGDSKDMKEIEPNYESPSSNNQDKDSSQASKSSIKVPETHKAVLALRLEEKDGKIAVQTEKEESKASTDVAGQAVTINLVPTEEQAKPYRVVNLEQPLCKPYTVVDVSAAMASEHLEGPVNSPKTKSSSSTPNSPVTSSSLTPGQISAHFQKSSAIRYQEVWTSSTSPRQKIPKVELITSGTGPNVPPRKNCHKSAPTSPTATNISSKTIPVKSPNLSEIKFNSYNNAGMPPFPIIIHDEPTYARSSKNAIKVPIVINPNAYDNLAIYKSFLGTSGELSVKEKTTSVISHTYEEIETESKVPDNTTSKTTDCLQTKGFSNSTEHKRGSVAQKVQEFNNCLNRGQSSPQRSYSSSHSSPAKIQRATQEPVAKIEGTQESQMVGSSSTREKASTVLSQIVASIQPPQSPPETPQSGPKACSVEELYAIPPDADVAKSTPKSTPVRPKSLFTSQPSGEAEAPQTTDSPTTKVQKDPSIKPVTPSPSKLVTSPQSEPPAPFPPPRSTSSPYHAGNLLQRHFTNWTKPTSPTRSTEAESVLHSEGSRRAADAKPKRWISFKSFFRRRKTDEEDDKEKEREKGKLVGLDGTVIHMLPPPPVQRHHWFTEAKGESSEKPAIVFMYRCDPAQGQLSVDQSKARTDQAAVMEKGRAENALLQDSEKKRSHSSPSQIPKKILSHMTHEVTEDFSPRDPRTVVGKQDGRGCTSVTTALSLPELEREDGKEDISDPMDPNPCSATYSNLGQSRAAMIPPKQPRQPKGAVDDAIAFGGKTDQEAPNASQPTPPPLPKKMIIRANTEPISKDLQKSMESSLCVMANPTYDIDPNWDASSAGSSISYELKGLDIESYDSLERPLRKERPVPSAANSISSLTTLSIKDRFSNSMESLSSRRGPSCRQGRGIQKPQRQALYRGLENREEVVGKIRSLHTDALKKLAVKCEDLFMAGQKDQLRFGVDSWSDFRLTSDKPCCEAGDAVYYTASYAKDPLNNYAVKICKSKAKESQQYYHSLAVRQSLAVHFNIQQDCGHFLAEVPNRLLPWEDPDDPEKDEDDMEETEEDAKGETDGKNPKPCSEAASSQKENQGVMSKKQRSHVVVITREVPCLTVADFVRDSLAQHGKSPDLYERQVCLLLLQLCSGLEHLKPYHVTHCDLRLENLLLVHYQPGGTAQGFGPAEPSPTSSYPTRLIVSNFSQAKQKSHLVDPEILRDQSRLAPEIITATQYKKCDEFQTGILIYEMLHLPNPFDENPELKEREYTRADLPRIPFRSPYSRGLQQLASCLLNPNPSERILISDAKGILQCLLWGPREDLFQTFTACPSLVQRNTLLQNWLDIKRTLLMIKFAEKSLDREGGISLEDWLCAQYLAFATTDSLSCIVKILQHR
# Procedure: as §1, §2, §3
# [7] = biological target: kinase named in conditions (Homo sapiens, UniProt P42681); details: TXK, 10 μM
# Procedure: as §1, §2, §3
# [8] = biological target: kinase named in conditions (Homo sapiens, UniProt Q7KZI7); details: MARK2, 10 μM
# Sequence of kinase named in conditions (Homo sapiens, UniProt Q7KZI7) (Q7KZI7 whole entry): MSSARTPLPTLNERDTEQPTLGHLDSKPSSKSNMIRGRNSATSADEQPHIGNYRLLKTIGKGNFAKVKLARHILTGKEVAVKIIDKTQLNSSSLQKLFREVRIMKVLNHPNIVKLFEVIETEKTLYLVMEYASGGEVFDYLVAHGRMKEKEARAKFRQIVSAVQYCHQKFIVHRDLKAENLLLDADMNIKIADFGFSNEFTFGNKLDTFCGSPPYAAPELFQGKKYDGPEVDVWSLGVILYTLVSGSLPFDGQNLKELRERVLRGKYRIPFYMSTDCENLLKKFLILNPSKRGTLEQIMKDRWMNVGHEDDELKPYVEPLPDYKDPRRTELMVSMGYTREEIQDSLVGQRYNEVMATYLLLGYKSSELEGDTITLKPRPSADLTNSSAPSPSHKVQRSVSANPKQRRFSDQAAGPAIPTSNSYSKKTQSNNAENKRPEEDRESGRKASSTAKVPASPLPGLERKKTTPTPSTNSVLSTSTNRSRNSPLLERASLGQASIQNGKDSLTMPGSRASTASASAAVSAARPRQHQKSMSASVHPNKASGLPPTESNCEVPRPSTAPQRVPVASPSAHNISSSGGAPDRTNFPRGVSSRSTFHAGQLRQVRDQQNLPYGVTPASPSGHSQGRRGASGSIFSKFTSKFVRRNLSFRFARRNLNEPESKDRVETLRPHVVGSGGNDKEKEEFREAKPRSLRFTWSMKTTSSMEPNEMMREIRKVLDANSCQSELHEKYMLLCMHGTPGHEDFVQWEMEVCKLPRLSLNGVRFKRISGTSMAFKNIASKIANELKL
# Procedure: as §1, §2, §3
# [9] = biological target: kinase named in conditions (Homo sapiens, UniProt P41279); details: MAP3K8 (COT), 10 μM
# Procedure: as §1, §2, §3
# [10] = biological target: kinase named in conditions (Homo sapiens, UniProt Q13554); details: CAMK2B (CaMKII beta), 10 μM
# Sequence of kinase named in conditions (Homo sapiens, UniProt Q13554) (Q13554 whole entry): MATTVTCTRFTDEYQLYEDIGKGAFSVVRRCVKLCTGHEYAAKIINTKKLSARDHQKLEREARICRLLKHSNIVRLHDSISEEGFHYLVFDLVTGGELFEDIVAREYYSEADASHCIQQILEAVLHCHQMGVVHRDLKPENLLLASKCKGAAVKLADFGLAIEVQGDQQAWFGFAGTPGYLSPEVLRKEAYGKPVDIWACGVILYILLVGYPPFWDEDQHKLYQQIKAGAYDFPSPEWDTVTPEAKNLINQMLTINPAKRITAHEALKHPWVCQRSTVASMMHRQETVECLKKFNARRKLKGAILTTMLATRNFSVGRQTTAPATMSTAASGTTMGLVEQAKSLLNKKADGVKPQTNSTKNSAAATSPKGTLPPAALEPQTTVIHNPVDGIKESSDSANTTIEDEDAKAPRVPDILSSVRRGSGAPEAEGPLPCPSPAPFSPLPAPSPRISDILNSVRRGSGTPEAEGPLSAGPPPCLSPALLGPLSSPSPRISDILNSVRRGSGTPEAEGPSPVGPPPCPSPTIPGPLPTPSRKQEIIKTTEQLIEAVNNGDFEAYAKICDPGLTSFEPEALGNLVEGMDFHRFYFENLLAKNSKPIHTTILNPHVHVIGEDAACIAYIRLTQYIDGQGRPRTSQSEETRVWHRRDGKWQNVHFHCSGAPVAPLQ
# Procedure: as §1, §2, §3
# [11] = biological target: kinase named in conditions (Homo sapiens, UniProt P31749); details: AKT1 (PKB alpha), 10 μM
# Procedure: as §1, §2, §3
# [12] = biological target: kinase named in conditions (Homo sapiens, UniProt P07949, S891A); details: RET S891A, 10 μM
# Procedure: as §1, §2, §3
# [13] = biological target: kinase named in conditions (Homo sapiens, UniProt Q9HC98); details: NEK6, 10 μM
# Sequence of kinase named in conditions (Homo sapiens, UniProt Q9HC98) (Q9HC98 whole entry): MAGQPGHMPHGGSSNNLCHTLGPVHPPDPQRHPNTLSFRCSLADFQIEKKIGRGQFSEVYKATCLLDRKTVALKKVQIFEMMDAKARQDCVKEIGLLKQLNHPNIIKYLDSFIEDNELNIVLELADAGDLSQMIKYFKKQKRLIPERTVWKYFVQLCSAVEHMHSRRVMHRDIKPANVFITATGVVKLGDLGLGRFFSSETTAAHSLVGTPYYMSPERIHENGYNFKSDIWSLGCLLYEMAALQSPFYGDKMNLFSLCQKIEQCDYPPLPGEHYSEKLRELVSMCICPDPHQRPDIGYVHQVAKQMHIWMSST
# Procedure: as §1, §2, §3
# [14] = biological target: kinase named in conditions (Homo sapiens, UniProt Q96SB4); details: SRPK1, 10 μM
# Procedure: as §1, §2, §3
# [15] = biological target: kinase named in conditions (Homo sapiens, UniProt Q5VT25); details: CDC42 BPA (MRCKA), 10 μM
# Procedure: as §1, §2, §3
# [16] = biological target: kinase named in conditions (Homo sapiens, UniProt P78368); details: CSNK1G2 (CK1 gamma 2), 10 μM
# Procedure: as §1, §2, §3
# [17] = biological target: kinase named in conditions (Homo sapiens, UniProt P31751); details: AKT2 (PKB beta), 10 μM
# Procedure: as §1, §2, §3
# [18] = biological target: kinase named in conditions (Homo sapiens, UniProt P27448); details: MARK3, 10 μM
# Procedure: as §1, §2, §3
# [19] = biological target: kinase named in conditions (Homo sapiens, UniProt O15530)
# Sequence of kinase named in conditions (Homo sapiens, UniProt O15530) (O15530 whole entry): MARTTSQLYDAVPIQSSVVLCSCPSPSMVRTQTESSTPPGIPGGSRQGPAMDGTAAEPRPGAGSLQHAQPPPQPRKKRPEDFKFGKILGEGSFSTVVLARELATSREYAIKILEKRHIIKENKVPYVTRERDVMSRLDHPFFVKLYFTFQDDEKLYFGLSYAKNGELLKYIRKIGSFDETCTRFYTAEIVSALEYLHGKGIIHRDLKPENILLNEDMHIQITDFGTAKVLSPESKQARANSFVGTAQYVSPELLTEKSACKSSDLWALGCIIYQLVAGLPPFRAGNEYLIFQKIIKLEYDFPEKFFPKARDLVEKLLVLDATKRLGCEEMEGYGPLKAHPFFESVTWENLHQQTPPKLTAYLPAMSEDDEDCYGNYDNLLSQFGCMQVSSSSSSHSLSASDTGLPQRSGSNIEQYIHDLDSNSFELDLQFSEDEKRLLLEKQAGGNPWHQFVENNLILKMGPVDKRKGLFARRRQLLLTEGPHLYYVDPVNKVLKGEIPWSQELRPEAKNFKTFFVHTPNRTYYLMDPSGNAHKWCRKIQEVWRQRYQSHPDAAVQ
# Procedure: as §1, §2, §3
# [20] = biological target: kinase named in conditions (Homo sapiens, UniProt Q16620); details: NTRK2 (TRKB), 10 μM
# Procedure: as §1, §2, §3
# [21] = biological target: kinase named in conditions (Homo sapiens, UniProt P35968); details: KDR (VEGFR2), 10 μM
# Procedure: as §1, §2, §3
# [22] = biological target: kinase named in conditions (Homo sapiens, UniProt P48730); details: CSNK1D (CK1 delta), 10 μM
# Procedure: as §1, §2, §3
# [23] = biological target: kinase named in conditions (Homo sapiens, UniProt Q13188); details: STK3 (MST2), 10 μM
# Procedure: as §1, §2, §3
# [24] = biological target: kinase named in conditions (Homo sapiens, UniProt P54762); details: EPHB1, 10 μM
# Procedure: as §1, §2, §3
# [25] = biological target: kinase named in conditions (Homo sapiens, UniProt Q96RG2); details: PASK, 10 μM
# Procedure: as §1, §2, §3
# [26] = biological target: kinase named in conditions (Homo sapiens, UniProt P22607, K650E); details: FGFR3 K650E, 10 μM
# Procedure: as §1, §2, §3
# [27] = biological target: kinase named in conditions (Homo sapiens, UniProt P04049, Y340D/Y341D); details: RAF1 (cRAF) Y340D Y341D, 10 μM
# Procedure: as §1, §2, §3
# [28] = biological target: kinase named in conditions (Homo sapiens, UniProt Q02763); details: TEK (Tie2), 10 μM
# Procedure: as §1, §2, §3
# [29] = biological target: kinase named in conditions (Homo sapiens, UniProt Q9BXA7); details: STK22D (TSSK1), 10 μM
# Procedure: as §1, §2, §3
# [30] = biological target: kinase named in conditions (Homo sapiens, UniProt Q8WTQ7); details: GRK7, 10 μM
# Procedure: as §1, §2, §3
# [31] = biological target: kinase named in conditions (Homo sapiens, UniProt P54756); details: EPHA5, 10 μM
# Sequence of kinase named in conditions (Homo sapiens, UniProt P54756) (P54756 25-1037): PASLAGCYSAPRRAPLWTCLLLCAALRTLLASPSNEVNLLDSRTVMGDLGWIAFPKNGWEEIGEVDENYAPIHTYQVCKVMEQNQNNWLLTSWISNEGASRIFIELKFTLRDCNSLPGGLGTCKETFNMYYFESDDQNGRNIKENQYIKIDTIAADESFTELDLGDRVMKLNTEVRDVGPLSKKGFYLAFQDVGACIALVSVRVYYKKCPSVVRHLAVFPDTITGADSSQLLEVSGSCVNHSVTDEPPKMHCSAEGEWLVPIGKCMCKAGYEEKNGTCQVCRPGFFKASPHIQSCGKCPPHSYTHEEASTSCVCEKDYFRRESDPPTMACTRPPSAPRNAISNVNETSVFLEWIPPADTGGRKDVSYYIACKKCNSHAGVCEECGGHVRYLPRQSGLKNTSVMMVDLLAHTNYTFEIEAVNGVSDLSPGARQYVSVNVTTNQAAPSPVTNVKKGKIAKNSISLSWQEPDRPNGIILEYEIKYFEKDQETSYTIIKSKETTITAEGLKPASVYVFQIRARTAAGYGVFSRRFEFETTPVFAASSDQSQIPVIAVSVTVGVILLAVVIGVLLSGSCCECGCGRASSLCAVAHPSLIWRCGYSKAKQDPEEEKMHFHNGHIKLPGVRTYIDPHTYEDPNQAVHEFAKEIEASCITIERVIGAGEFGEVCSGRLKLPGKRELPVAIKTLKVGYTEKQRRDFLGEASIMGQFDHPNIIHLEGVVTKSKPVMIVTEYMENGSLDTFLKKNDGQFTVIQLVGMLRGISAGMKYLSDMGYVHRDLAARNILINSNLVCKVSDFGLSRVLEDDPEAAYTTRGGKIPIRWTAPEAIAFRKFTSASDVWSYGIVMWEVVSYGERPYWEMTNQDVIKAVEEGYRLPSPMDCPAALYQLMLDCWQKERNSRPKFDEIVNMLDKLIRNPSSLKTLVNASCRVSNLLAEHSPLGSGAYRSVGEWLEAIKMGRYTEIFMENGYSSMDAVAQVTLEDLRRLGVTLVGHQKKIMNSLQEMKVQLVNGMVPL
# Procedure: as §1, §2, §3
# [32] = biological target: kinase named in conditions (Homo sapiens, UniProt Q15303); details: ERBB4 (HER4), 10 μM
# Procedure: as §1, §2, §3
# [33] = biological target: kinase named in conditions (Homo sapiens, UniProt P24723); details: PRKCH (PKC eta), 10 μM
# Procedure: as §1, §2, §3
# [34] = biological target: kinase named in conditions (Homo sapiens, UniProt Q16566); details: CAMK4 (CaMKIV), 10 μM
# Procedure: as §1, §2, §3
smiles,measurement,setting,value
"FC(F)(F)c1c(Cl)ccc(-n2ccnn2)c1Cl [8l, 1-(2,4-Dichloro-3-(trifluoromethyl)phenyl)-1H-1,2,3-triazole]",inhibition at 10 µM,[1],3%
same,inhibition at 10 µM,[2],-10%
same,inhibition at 10 µM,[3],0%
same,inhibition at 10 µM,[4],23%
same,inhibition at 10 µM,[5],-3%
same,inhibition at 10 µM,[6],20%
same,inhibition at 10 µM,[7],4%
same,inhibition at 10 µM,[8],-7%
same,inhibition at 10 µM,[9],0%
same,inhibition at 10 µM,[10],4%
same,inhibition at 10 µM,[11],7%
same,inhibition at 10 µM,[12],10%
same,inhibition at 10 µM,[13],12%
same,inhibition at 10 µM,[14],2%
same,inhibition at 10 µM,[15],-3%
same,inhibition at 10 µM,[16],-2%
same,inhibition at 10 µM,[17],7%
same,inhibition at 10 µM,[18],3%
same,inhibition at 10 µM,"[19]; PDK1, 10 μM",4%
same,inhibition at 10 µM,"[19]; PDK1 Direct, 10 μM",-2%
same,inhibition at 10 µM,[20],5%
same,inhibition at 10 µM,[21],14%
same,inhibition at 10 µM,[22],3%
same,inhibition at 10 µM,[23],-9%
same,inhibition at 10 µM,[24],3%
same,inhibition at 10 µM,[25],-1%
same,inhibition at 10 µM,[26],-5%
same,inhibition at 10 µM,[27],10%
same,inhibition at 10 µM,[28],-1%
same,inhibition at 10 µM,[29],-5%
same,inhibition at 10 µM,[30],0%
same,inhibition at 10 µM,[31],0%
same,inhibition at 10 µM,[32],1%
same,inhibition at 10 µM,[33],-1%
same,inhibition at 10 µM,[34],15%
